According to ChEMBL document CHEMBL1201862, “PubChem BioAssay data set” (2004):
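Briefly, cells in 96-well plates were exposed to five compound concentrations for 48 h, and endpoints were estimated by linear interpolation. GI50: concentration for 50% inhibition of growth.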 Activity calls are given as the source filed them. No stated cut-off is given here; in the data, active = GI50 up to about 1.1 µM and inactive = higher.

Tests used:
Test in all cases: NCI anticancer screen, dose series, 48 h
NCI-H23 = system: NCI-H23
EKVX = system: EKVX
SN12C = system: SN12C
HCT-116 = system: HCT-116
UACC-257 = system: UACC-257
RXF 393 = system: RXF 393
SW-620 = system: SW-620
M19-MEL = system: M19-MEL
DMS-273 = system: DMS-273
RPMI-8226 = system: RPMI-8226
OVCAR-4 = system: OVCAR-4
DLD-1 = system: DLD-1
SR = system: SR

Measured: GI50

Cc1cc(Cl)ccc1NC(=O)C1C(=O)N(c2ccc(Cl)cc2C)C(=O)/C1=N\NC(N)=S (stereo not drawn)
inactive: NCI-H23 19.8 µM | EKVX 22.6 µM | SN12C 27.4 µM | HCT-116 21.9 µM | UACC-257 59 µM | RXF 393 16 µM | SW-620 29.7 µM | M19-MEL 37.4 µM | DMS-273 46.3 µM | RPMI-8226 44.8 µM | OVCAR-4 18.5 µM | DLD-1 35.3 µM

O=C(O)C(CO)NC(=O)n1c2ccccc2c2ccccc21 (stereo not drawn)
inactive: NCI-H23 > 100 µM | EKVX > 100 µM | SN12C > 100 µM | HCT-116 > 100 µM | SR > 100 µM | UACC-257 > 100 µM | RXF 393 > 100 µM | SW-620 > 100 µM | M19-MEL > 100 µM | DMS-273 > 100 µM | RPMI-8226 > 100 µM | DLD-1 > 100 µM

CCc1cccc(C)c1NC(C)=O
inactive: NCI-H23 > 100 µM | EKVX > 100 µM | HCT-116 > 100 µM | UACC-257 > 100 µM | RXF 393 > 100 µM | SW-620 > 100 µM | M19-MEL > 100 µM | DMS-273 > 100 µM | RPMI-8226 > 100 µM | OVCAR-4 > 100 µM | DLD-1 > 100 µM

C/C(CC(=O)Nc1ccc(C)cc1C)=N/N=C(N)N
inactive: NCI-H23 > 100 µM | EKVX > 100 µM | HCT-116 > 100 µM | UACC-257 > 100 µM | RXF 393 > 100 µM | SW-620 > 100 µM | M19-MEL > 100 µM | DMS-273 > 100 µM | RPMI-8226 > 100 µM | DLD-1 > 100 µM

Cn1cnc([N+](=O)[O-])c1Sc1nnc(C(F)(F)F)n1C
inactive: NCI-H23 37.5 µM | EKVX > 100 µM | SN12C 40.2 µM | HCT-116 16.3 µM | SR 17.6 µM | UACC-257 17.3 µM | SW-620 18.6 µM | M19-MEL 18.9 µM | DMS-273 25.6 µM | RPMI-8226 19.7 µM | OVCAR-4 24.3 µM | DLD-1 16.4 µM

CCCCCCCCCCCCCCCCOCC(CP(=O)([O-])OCC[n+]1ccccc1)OC (stereo not drawn)
inactive: NCI-H23 4.05 µM | EKVX 16.5 µM | SN12C 11.4 µM | HCT-116 9.66 µM | SR 3.5 µM | UACC-257 14.5 µM | SW-620 14.9 µM | M19-MEL 12.4 µM | DMS-273 2.04 µM | RPMI-8226 2.96 µM | OVCAR-4 11.4 µM | DLD-1 2.81 µM

COc1cc2c(cc1OCc1ccccc1)CNCC2
inactive: NCI-H23 > 100 µM | EKVX > 100 µM | SN12C > 100 µM | HCT-116 > 100 µM | UACC-257 > 100 µM | RXF 393 > 100 µM | SW-620 24.3 µM | M19-MEL > 100 µM | DMS-273 > 100 µM | OVCAR-4 > 100 µM | DLD-1 > 100 µM

CC(=O)NC1=C(N)C(=O)c2ccccc2C1=O
inactive: NCI-H23 59.2 µM | EKVX > 100 µM | SN12C 54.7 µM | HCT-116 17.7 µM | UACC-257 > 100 µM | RXF 393 46.9 µM | SW-620 14.9 µM | M19-MEL 19.4 µM | DMS-273 > 100 µM | RPMI-8226 60 µM | DLD-1 31.4 µM

O=C(Nc1cc(Cl)ccc1Cl)c1cc2cccc(Cl)c2oc1=O
inactive: NCI-H23 > 100 µM | EKVX > 100 µM | SN12C > 100 µM | HCT-116 > 100 µM | UACC-257 61.2 µM | RXF 393 > 100 µM | SW-620 > 100 µM | M19-MEL > 100 µM | DMS-273 > 100 µM | RPMI-8226 > 100 µM | DLD-1 > 100 µM

CC1C(c2ccccc2)N(C)C(c2ccccc2)C(C)C1(O)c1ccccc1 (stereo not drawn)
inactive: NCI-H23 > 100 µM | EKVX > 100 µM | SN12C > 100 µM | HCT-116 26.4 µM | UACC-257 > 100 µM | RXF 393 > 100 µM | SW-620 54 µM | M19-MEL 47.4 µM | DMS-273 40.7 µM | OVCAR-4 > 100 µM | DLD-1 > 100 µM

COC(=O)C(Cl)=C1CC1
inactive: NCI-H23 45.2 µM | EKVX > 10 µM | SN12C 41.8 µM | UACC-257 31.6 µM | RXF 393 19.1 µM | SW-620 18.3 µM | M19-MEL 39.7 µM | DMS-273 31.6 µM | RPMI-8226 21.8 µM | OVCAR-4 34.8 µM | DLD-1 23.6 µM

ClC(Cl)=C(Cl)C1(Cl)CC1COCc1ccccc1 (stereo not drawn)
inactive: NCI-H23 25.2 µM | EKVX 26.1 µM | SN12C 39.8 µM | UACC-257 26.1 µM | RXF 393 18.1 µM | SW-620 30.9 µM | M19-MEL 31.4 µM | DMS-273 42.8 µM | RPMI-8226 15.8 µM | OVCAR-4 17.6 µM | DLD-1 38 µM

C/C(=N\NS(=O)(=O)c1ccc(C)cc1)c1cc2ccccc2n1C
inactive: NCI-H23 > 100 µM | EKVX 74.3 µM | SN12C 24.2 µM | HCT-116 > 100 µM | SR > 100 µM | UACC-257 > 100 µM | SW-620 > 100 µM | M19-MEL > 100 µM | DMS-273 > 100 µM | RPMI-8226 > 100 µM | OVCAR-4 > 100 µM | DLD-1 > 100 µM

c1ccc2c(c1)CCc1cc3cc4c(nc3nc1-2)-c1ccccc1CC4
inactive: NCI-H23 > 100 µM | EKVX > 100 µM | SN12C > 100 µM | HCT-116 > 100 µM | SR > 100 µM | UACC-257 > 100 µM | RXF 393 69.7 µM | SW-620 > 100 µM | M19-MEL > 100 µM | DMS-273 > 100 µM | RPMI-8226 > 100 µM | DLD-1 > 100 µM

N#CC1CCCCCCCCCCC(=O)N(CCCl)C1=O (stereo not drawn)
inactive: NCI-H23 > 100 µM | EKVX > 100 µM | SN12C > 100 µM | UACC-257 > 100 µM | RXF 393 > 100 µM | SW-620 > 100 µM | M19-MEL > 100 µM | DMS-273 > 100 µM | RPMI-8226 > 100 µM | OVCAR-4 > 100 µM | DLD-1 > 100 µM

COC(=O)c1nc(-c2ccc(Cl)c(Cl)c2)nc2ccccc12
inactive: NCI-H23 57.9 µM | EKVX > 100 µM | SN12C > 100 µM | HCT-116 13.1 µM | UACC-257 > 29.6 µM | RXF 393 13.6 µM | SW-620 > 21 µM | M19-MEL > 100 µM | DMS-273 26.2 µM | RPMI-8226 > 28.9 µM | OVCAR-4 7.83 µM | DLD-1 > 25.2 µM

NC(=S)N1N=C2CCCCCC[C@@H]2[C@H]1c1ccccc1
inactive: NCI-H23 40.2 µM | EKVX 27.7 µM | SN12C 86.1 µM | HCT-116 43.1 µM | UACC-257 36.6 µM | RXF 393 95.9 µM | SW-620 28.6 µM | M19-MEL 38.5 µM | DMS-273 34.2 µM | RPMI-8226 15.1 µM | DLD-1 56.2 µM

NCCCOc1ccc([N+](=O)[O-])cc1Cl
inactive: NCI-H23 > 100 µM | HCT-116 > 100 µM | SR > 100 µM | UACC-257 > 100 µM | SW-620 > 100 µM | M19-MEL > 100 µM | DMS-273 > 100 µM | RPMI-8226 51.8 µM | OVCAR-4 > 100 µM | DLD-1 > 100 µM
